Measurements reported in ChEMBL document CHEMBL4406866, “Design, synthesis and evaluation of 5-(4-hydroxyphenyl)-3H-1,2-dithiole-3-thione-Based fibrates as potential hypolipidemic and hepatoprotective agents” (Bioorg Med Chem Lett, 2019).
Active and inactive are the calls of the source. The rule behind the calls is not given here.

Experiments:
[1] = Drug metabolism in po dosed mouse plasma assessed as H2S release by measuring hydrogen sulfide level administered for 7 days and measured following 12 hrs fasting on day 7 (reference value: 52.9 +/- 5.4 umol/L); type: ADME, organism-based; settings: in vivo
[2] = Drug metabolism in po dosed mouse liver assessed as H2S release by measuring hydrogen sulfide level administered for 7 days and measured following 12 hrs fasting on day 7 (reference value: 93.8 +/- 6.1 nmol/g); type: ADME, organism-based; settings: in vivo
Mus musculus [3] = species on record: Mus musculus; settings: at 13 mg/kg
Description: Hypolipidemic activity in Triton WR1339-induced hyperlipidemia mouse model assessed as decrease in serum TG level at 13 mg/kg, ig administered for one week and administered with Triton WR 1339 on day 6 and measured after 24 hrs

Mus musculus [4] = species on record: Mus musculus; settings: at 13 mg/kg; remark: listed apart in the source
Description: Hypolipidemic activity in Triton WR1339-induced hyperlipidemia mouse model assessed as decrease in serum MDA level at 13 mg/kg, ig administered for one week and administered with Triton WR 1339 on day 6 and measured after 24 hrs

Mus musculus [5] = species on record: Mus musculus; settings: at 13 mg/kg; remark: listed apart in the source
Description: Hypolipidemic activity in Triton WR1339-induced hyperlipidemia mouse model assessed as decrease in serum TC level at 13 mg/kg, ig administered for one week and administered with Triton WR 1339 on day 6 and measured after 24 hrs

Rattus norvegicus [6] = test: Hepatoprotective activity in Met-induced hyperlipidemia rat model assessed as decrease in serum AST level at 9 mg/kg, po administered with compound for last 30 days during feeding of 0.2% Met solution for 60 days; type: functional, organism-based
Rattus norvegicus [7] = test: Hepatoprotective activity in Met-induced hyperlipidemia rat model assessed as decrease in serum ALT level at 9 mg/kg, po administered with compound for last 30 days during feeding of 0.2% Met solution for 60 days; type: functional, organism-based
Rattus norvegicus [8] = test: Hepatoprotective activity in Met-induced hyperlipidemia rat model assessed as decrease in red lipid droplets in hepatocytes at 9 mg/kg, po administered with compound for last 30 days during feeding of 0.2% Met solution for 60 days by oil red O-staining based microscopic analysis; type: functional, organism-based
Rattus norvegicus [9] = test: Upregulation of PPAR-alpha protein expression in liver of Met-induced hyperlipidemia rat model at 9 mg/kg, po administered with compound for last 30 days during feeding of 0.2% Met solution for 60 days; type: functional, organism-based
Rattus norvegicus [10] = test: Hypolipidemic activity in Met-induced hyperlipidemia rat model assessed as increase in serum hydrogen sulfide level at 9 mg/kg, po administered with compound for last 30 days during feeding of 0.2% Met solution for 60 days; type: functional, organism-based
Rattus norvegicus [11] = test: Hypolipidemic activity in Met-induced hyperlipidemia rat model assessed as decrease in serum TG level at 9 mg/kg, po administered with compound for last 30 days during feeding of 0.2% Met solution for 60 days; type: functional, organism-based
Rattus norvegicus [12] = test: Hypolipidemic activity in Met-induced hyperlipidemia rat model assessed as decrease in serum TC level at 9 mg/kg, po administered with compound for last 30 days during feeding of 0.2% Met solution for 60 days; type: functional, organism-based
Rattus norvegicus [13] = test: Hypolipidemic activity in Met-induced hyperlipidemia rat model assessed as decrease in atherosclerosis index at 9 mg/kg, po administered with compound for last 30 days during feeding of 0.2% Met solution for 60 days; type: functional, organism-based
Rattus norvegicus [14] = test: Antioxidant activity in Met-induced hyperlipidemia rat model assessed as increase in serum SOD level at 9 mg/kg, po administered with compound for last 30 days during feeding of 0.2% Met solution for 60 days; type: functional, organism-based
Rattus norvegicus [15] = test: Antioxidant activity in Met-induced hyperlipidemia rat model assessed as increase in serum T-AOC level at 9 mg/kg, po administered with compound for last 30 days during feeding of 0.2% Met solution for 60 days; type: functional, organism-based
Rattus norvegicus [16] = test: Antioxidant activity in Met-induced hyperlipidemia rat model assessed as decrease in serum MDA level at 9 mg/kg, po administered with compound for last 30 days during feeding of 0.2% Met solution for 60 days; type: functional, organism-based
Rattus norvegicus [17] = test: Antiinflammatory activity in Met-induced hyperlipidemia rat model assessed as decrease in serum TNF-alpha level at 9 mg/kg, po administered with compound for last 30 days during feeding of 0.2% Met solution for 60 days by ELISA; type: functional, organism-based
Rattus norvegicus [18] = test: Antiinflammatory activity in Met-induced hyperlipidemia rat model assessed as decrease in serum IL-6 level at 9 mg/kg, po administered with compound for last 30 days during feeding of 0.2% Met solution for 60 days by ELISA; type: functional, organism-based
Rattus norvegicus [19] = test: Hepatoprotective activity in Met-induced hyperlipidemia rat model assessed as improvement in hepatic tissue hemorrhagic symptoms at 9 mg/kg, po administered with compound for last 30 days during feeding of 0.2% Met solution for 60 days by microscopic analysis; type: functional, organism-based
Rattus norvegicus [20] = test: Hepatoprotective activity in Met-induced hyperlipidemia rat model assessed as decrease in inflammatory cell infiltration in liver at 9 mg/kg, po administered with compound for last 30 days during feeding of 0.2% Met solution for 60 days by microscopic analysis; type: functional, organism-based
Rattus norvegicus [21] = test: Vasorelaxation activity in Met-induced hyperlipidemia rat model assessed as effect on serum ET-1 level at 9 mg/kg, po administered with compound for last 30 days during feeding of 0.2% Met solution for 60 days; type: functional, organism-based
Rattus norvegicus [22] = test: Hypolipidemic activity in Met-induced hyperlipidemia rat model assessed as decrease in serum Hcy level at 9 mg/kg, po administered with compound for last 30 days during feeding of 0.2% Met solution for 60 days; type: functional, organism-based
[23] = Drug metabolism in Met-induced hyperlipidemia rat model assessed as H2S release by measuring increase in serum hydrogen sulfide level at 9 mg/kg, po administered with compound for last 30 days during feeding of 0.2% Met solution for 60 days; type: ADME, organism-based; settings: in vivo

SMILES | Drug metabolism [1] [µmol/L] | Drug metabolism [2] [nmol/g] | inhibition (Mus musculus [3]) | inhibition (Mus musculus [4]) | inhibition (Mus musculus [5]) | also measured
COC(=O)CCCCCOc1ccc(-c2cc(=S)ss2)cc1 | 93.7 | 132.1 | Active | – | – | –
CCC(Oc1ccc(-c2cc(=S)ss2)cc1)C(=O)OC (stereo unspecified) | 128.8 | 159.5 | Active | Active | – | –
COc1ccc(-c2cc(=S)ss2)cc1 [ANETHOLTRITHION] | 184.6 | 181.3 | inactive | Active | inactive | –
COC(=O)CCCCOc1ccc(-c2cc(=S)ss2)cc1 | 86.5 | 155.5 | Active | – | Active | –
COC(=O)C(C)Oc1ccc(-c2cc(=S)ss2)cc1 (stereo unspecified) | 119.3 | 164.8 | Active | – | – | –
CC(C)OC(=O)C(C)(C)Oc1ccc(C(=O)c2ccc(Cl)cc2)cc1 | – | – | – | – | – | Activity (Rattus norvegicus [6]): Active; Activity (Rattus norvegicus [7]): inactive; Activity (Rattus norvegicus [8]): Active; Activity (Rattus norvegicus [9]): Active; Activity (Rattus norvegicus [10]): Active
COC(=O)C(C)(C)Oc1ccc(-c2cc(=S)ss2)cc1 | 113.4 | 165.6 | Active | Active | Active | inhibition (Rattus norvegicus [11]): Active; inhibition (Rattus norvegicus [12]): Active; inhibition (Rattus norvegicus [13]): Active; Activity (Rattus norvegicus [14]): Active; Activity (Rattus norvegicus [15]): Active; inhibition (Rattus norvegicus [16]): Active; inhibition (Rattus norvegicus [17]): Active; inhibition (Rattus norvegicus [18]): Active; Activity (Rattus norvegicus [6]): Active; Activity (Rattus norvegicus [7]): Active; Activity (Rattus norvegicus [8]): Active; Activity (Rattus norvegicus [19]): Active; Activity (Rattus norvegicus [20]): Active; Activity (Rattus norvegicus [21]): inactive; inhibition (Rattus norvegicus [22]): Active; Drug metabolism [23]: Metabolite_Detected; Activity (Rattus norvegicus [9]): Active
COC(=O)CCCOc1ccc(-c2cc(=S)ss2)cc1 | 95.5 | 130.5 | Active | Active | Active | –
